pIC50: −log10 of the molar value. Values joined by “and” are separate entries in the source; they are usually repeats but may differ in a detail not shown here. Equal entries are not always repeated.
Tests used:
[1] = target: Glycogen synthase kinase-3 beta (Homo sapiens, UniProt P49841); test: TR-FRET Assay
Experimental: (§1) The assay was performed in a white, 384 well, low volume, flat bottom plate (Grenier). […] The kinase activity was quenched with 2 μL of 250 mM EDTA. A 10 μL volume of 40 nM Strepavidin-d2, 2 nM Tb2+-pSer641 antibody in TR-FRET Detection Buffer (Invitrogen) was then added.

[2] = target: Glycogen synthase kinase-3 alpha (Homo sapiens, UniProt P49840); test: TR-FRET Assay
Chain of Glycogen synthase kinase-3 alpha (P49840 whole entry): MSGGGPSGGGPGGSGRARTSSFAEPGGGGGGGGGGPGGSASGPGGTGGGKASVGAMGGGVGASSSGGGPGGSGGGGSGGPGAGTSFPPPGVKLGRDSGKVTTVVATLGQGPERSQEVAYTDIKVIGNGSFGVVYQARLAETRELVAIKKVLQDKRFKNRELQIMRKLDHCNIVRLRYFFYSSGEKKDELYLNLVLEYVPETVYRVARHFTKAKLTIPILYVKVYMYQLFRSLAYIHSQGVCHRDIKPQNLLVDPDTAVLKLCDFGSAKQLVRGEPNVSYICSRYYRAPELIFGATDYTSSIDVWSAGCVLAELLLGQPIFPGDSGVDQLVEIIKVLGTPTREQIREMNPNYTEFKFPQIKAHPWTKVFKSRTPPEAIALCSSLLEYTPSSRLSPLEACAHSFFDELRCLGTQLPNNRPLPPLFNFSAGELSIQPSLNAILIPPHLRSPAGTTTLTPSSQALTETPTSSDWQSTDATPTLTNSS
Experimental: as §1

Chain of Glycogen synthase kinase-3 beta (P49841 whole entry): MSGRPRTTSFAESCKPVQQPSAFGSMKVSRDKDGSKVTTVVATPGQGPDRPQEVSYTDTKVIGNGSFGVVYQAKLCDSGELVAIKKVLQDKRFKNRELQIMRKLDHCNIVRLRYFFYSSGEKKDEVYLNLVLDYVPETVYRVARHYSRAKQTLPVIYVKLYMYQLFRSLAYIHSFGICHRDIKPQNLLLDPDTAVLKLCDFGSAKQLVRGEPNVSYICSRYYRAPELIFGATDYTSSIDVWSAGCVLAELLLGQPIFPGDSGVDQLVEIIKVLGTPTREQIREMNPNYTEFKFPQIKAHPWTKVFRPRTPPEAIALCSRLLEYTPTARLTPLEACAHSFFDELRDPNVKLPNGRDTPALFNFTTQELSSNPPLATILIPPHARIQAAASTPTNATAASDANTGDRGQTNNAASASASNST

SMILES	pIC50 [1]	pIC50 [2]
C[S@+]([O-])c1cccc([C@]2(C)C3=C(CC(C)(C)CC3=O)NC3=C2C(CC(C)(C)C)N=N3)c1 (some centres undefined) [US20250313563, Compound 126190]	6.00 to 7.00	5.30 to 6.00
CC[C@]1(c2cccc(C(C)C)c2)C2=CN=NC2NC2=C1C(=O)CC(C)(C)C2 (some centres undefined) [US20250313563, Compound 810373]	> 7.00 and 5.30 to 6.00	> 7.00 and 6.00 to 7.00
CCC1(c2cccc(N(C)C(=O)CCc3ccccc3)c2)C2=CN=NC2NC2=C1C(=O)CC(C)(C)C2 (centres undefined) [US20250313563, Compound 912066]	6.00 to 7.00	> 7.00
CC[C@]1(c2cccc(C(F)F)c2)C2=CN=NC2NC2=C1C(=O)CC(C)(C)C2 (some centres undefined) [US20250313563, Compound 826717]	> 7.00 and 5.30 to 6.00	> 7.00 and 6.00 to 7.00
CC1(C)CC(=O)C2=C(C1)NC1=C(CN=N1)[C@]21CCN(S(=O)(=O)c2ccccc2)C1 [US20250313563, Compound 943485]	> 7.00 and 5.30 to 6.00	> 7.00 and 6.00 to 7.00
CCN(c1cccnc1)c1cccc([C@]2(CC)C3=CN=NC3NC3=C2C(=O)CC(C)(C)C3)c1 (some centres undefined) [US20250313563, Compound 917089]	5.30 to 6.00	6.00 to 7.00
CCc1cc(N(C)c2cccc(C3(CC)C4=CN=NC4NC4=C3C(=O)CC(C)(C)C4)c2)ccn1 (centres undefined) [US20250313563, Compound 917147]	6.00 to 7.00	> 7.00
C[C@@H]1CC[C@@]2(C1)C1=C(N=NC1)NC1=C2C(=O)CC(C)(C)C1 [US20250313563, Compound 897750]	> 7.00	> 7.00
CC[C@@]1(c2cccc(Cl)c2)C2=C(CC(C)(C)CC2=O)NC2N=NC(Br)=C21 (some centres undefined) [US20250313563, Compound 801315]	6.00 to 7.00	6.00 to 7.00
CC1(C)CC(=O)C2=C(C1)NC1=C(CN=N1)C21Cc2ccccc21 (centres undefined) [US20250313563, Compound 917226]	6.00 to 7.00	6.00 to 7.00
C[C@@H]1C[C@H](C)C[C@]2(C1)C1=C(N=NC1)NC1=C2C(=O)CC(C)(C)C1 [US20250313563, Compound 884113]	5.30 to 6.00	6.00 to 7.00
COc1ccc(S(=O)(=O)N2CCC3(CC2)C2=C(N=NC2)NC2=C3C(=O)CC(C)(C)C2)cc1 [US20250313563, Compound 917143]	> 7.00	> 7.00
CC1(C)CC(=O)C2=C(C1)NC1=C(CN=N1)[C@@]21CCOC1 [US20250313563, Compound 877314]	5.30 to 6.00	6.00 to 7.00
CC1(C)CC(=O)C2=C(C1)NC1=C(CN=N1)C21CN(c2ccncc2)C1 [US20250313563, Compound 912077]	< 5.30	< 5.30
CC[C@]1(c2cccc(-c3ccncn3)c2)C2=CN=NC2NC2=C1C(=O)CC(C)(C)C2 (some centres undefined) [US20250313563, Compound 810488]	6.00 to 7.00	> 7.00
CC[C@@]1(c2cccc(S(C)(=O)=O)c2)C2=CN=NC2NC2=C1C(=O)CC(C)(C)C2 (some centres undefined) [US20250313563, Compound 826719]	< 5.30	5.30 to 6.00
CCC1(c2ccc(C)cc2)C2=C(CC(C)(C)CC2=O)NC2N=NC(C(F)(F)F)=C21 (centres undefined) [US20250313563, Compound 883866]	> 7.00	> 7.00
CC1(C)CC(=O)C2=C(C1)NC1N=NC(CC(F)(F)F)=C1[C@]21CCc2c(F)cccc21 (some centres undefined) [US20250313563, Compound 816838]	6.00 to 7.00	6.00 to 7.00
CC[C@@]1(c2cccc([C@H]3CCOC3)c2)C2=CN=NC2NC2=C1C(=O)CC(C)(C)C2 (some centres undefined) [US20250313563, Compound 889558]	6.00 to 7.00	> 7.00
CC1(C)CC(=O)C2=C(C1)NC1N=NC(CC(F)(F)F)=C1[C@@]21CCc2c(F)cccc21 (some centres undefined) [US20250313563, Compound 816837]	6.00 to 7.00	5.30 to 6.00
CCC1(c2cccc(-c3ccnc(C(C)C)c3)c2)C2=CN=NC2NC2=C1C(=O)CC(C)(C)C2 (centres undefined) [US20250313563, Compound 930569]	5.30 to 6.00	6.00 to 7.00

Continued, values first:

pIC50 [1]	pIC50 [2]	SMILES
> 7.00	> 7.00	CC1(C)CC(=O)C2=C(C1)NC1=C(CN=N1)C21COC2(CN(C(=O)c3ccccc3F)C2)C1 (centres undefined) [US20250313563, Compound 947289]
> 7.00 and 6.00 to 7.00	> 7.00	CC1(C)CC(=O)C2=C(C1)NC1=C(CN=N1)C21CCN(S(=O)(=O)c2cccc3c2OCCO3)CC1 [US20250313563, Compound 947464]
6.00 to 7.00	> 7.00	CC[C@@]1(c2cccc(-c3cnn4cc(F)cc(F)c34)c2)C2=CN=NC2NC2=C1C(=O)NC(C)(C)C2 (some centres undefined) [US20250313563, Compound 950565]
> 7.00	> 7.00	CC[C@]1(c2cccc(S(=O)(=O)CC3CC3)c2)C2=C(CC(C)(C)NC2=O)NC2N=NC(C(F)(F)F)=C21 (some centres undefined) [US20250313563, Compound 949175]
< 5.30	6.00 to 7.00	CC[C@@]1(c2cccc(-c3cnnc(C)c3)c2)C2=CN=NC2NC2=C1C(=O)CC(C)(C)C2 (some centres undefined) [US20250313563, Compound 943995]
< 5.30	< 5.30	CC[C@]1(c2cccc(-c3ccnc4ccc(OC)cc34)c2)C2=CN=NC2NC2=C1C(=O)NC(C)(C)C2 (some centres undefined) [US20250313563, Compound 948518]
< 5.30	5.30 to 6.00	CC[C@@]1(c2cccc(S(C)(=O)=O)c2)C2=C(CC(C)(C)NC2=O)NC2N=NC(C)=C21 (some centres undefined) [US20250313563, Compound 947815]
< 5.30	5.30 to 6.00	CC[C@]1(c2cccc(-c3ccnc(C)c3)c2)C2=CN=NC2NC2=C1C(=O)NC1(CCC1)C2 (some centres undefined) [US20250313563, Compound 949517]
5.30 to 6.00	6.00 to 7.00	CC[C@@]1(c2cccc(-c3ccncc3C)c2)C2=CN=NC2NC2=C1C(=O)N[C@@]1(CCCOC1)C2 (some centres undefined) [US20250313563, Compound 947909]
> 7.00	> 7.00	CC1(C)CC(=O)C2=C(NC3N=NC=C3C23CCCCC3)[C@H]1F (some centres undefined) [US20250313563, Compound 951711]
6.00 to 7.00	> 7.00	CC1(C)CC(=O)C2=C(C1)NC1N=NC=C1[C@@]21CCCN(S(=O)(=O)Cc2ccccc2)CC1 (some centres undefined) [US20250313563, Compound 945473]
> 7.00 and 5.30 to 6.00	> 7.00 and 6.00 to 7.00	CCC1(c2cccc(N(C)c3ncccn3)c2)C2=C(CC(C)(C)NC2=O)NC2N=NC(F)=C21 (centres undefined) [US20250313563, Compound 949172]
< 5.30	5.30 to 6.00	CC[C@]1(c2cccc(-c3ccnn3C)c2)C2=CN=NC2NC2=C1C(=O)NC1(CCCC1)C2 (some centres undefined) [US20250313563, Compound 948019]
< 5.30	5.30 to 6.00	CC[C@@]1(c2cccc(Oc3ncccn3)c2)C2=C(CC(C)(C)NC2=O)NC2N=NC(F)=C21 (some centres undefined) [US20250313563, Compound 951944]
> 7.00	> 7.00	Cc1ccc(S(=O)(=O)N2CCC3(CC2)C2=C(N=NC2)NC2=C3C(=O)CC(C)(C)C2)c(C)c1 [US20250313563, Compound 947468]
6.00 to 7.00	6.00 to 7.00	Cc1cccc(S(=O)(=O)N2CC[C@@]3(C2)C2=C(N=NC2)NC2=C3C(=O)CC(C)(C)C2)c1 [US20250313563, Compound 951863]

pIC50 [1]	pIC50 [2]	SMILES
> 7.00 and 6.00 to 7.00	> 7.00 and 6.00 to 7.00	CC1CCC(CC(=O)N2CC3(C2)CC2(CO3)C3=C(N=NC3)NC3=C2C(=O)CC(C)(C)C3)C1 (centres undefined) [US20250313563, Compound 947269]
< 5.30	5.30 to 6.00	CC[C@]1(c2cccc(-c3ccnn3C)c2)C2=CN=NC2NC2=C1C(=O)N[C@](C)(COC)C2 (some centres undefined) [US20250313563, Compound 947908]
> 7.00 and 5.30 to 6.00	> 7.00 and 6.00 to 7.00	CC[C@@]1(c2cccc(-c3ccncc3C3CC3)c2)C2=CN=NC2NC2=C1C(=O)NC(C)(C)C2 (some centres undefined) [US20250313563, Compound 950059]
> 7.00 and 6.00 to 7.00	> 7.00	CC[C@@]1(c2cccc(-c3c(F)cncc3OC)c2)C2=CN=NC2NC2=C1C(=O)NC(C)(C)C2 (some centres undefined) [US20250313563, Compound 948150]
> 7.00	> 7.00	CCC1(c2cccc(S(=O)(=O)C3CC3)c2)C2=CN=NC2NC2=C1C(=O)NC(C)(C)C2 (centres undefined) [US20250313563, Compound 945465]
> 7.00	> 7.00	CCC1(c2cccc(N(C)c3ncccn3)c2)C2=C(CC(C)(C)NC2=O)NC2N=NC(C)=C21 (centres undefined) [US20250313563, Compound 948175]
> 7.00	> 7.00	CC[C@]1(c2cccc(OCC(F)F)c2)C2=CN=NC2NC2=C1C(=O)CC(C)(C)C2 (some centres undefined) [US20250313563, Compound 949104]
6.00 to 7.00	> 7.00	CC[C@]1(c2cccc(-c3ccnc(C)c3)c2)C2=C(N=NC2)NC2=C1C(=O)C(C)(C)C2 [US20250313563, Compound 950282]
5.30 to 6.00	6.00 to 7.00	CC1(C)CC(=O)C2=C(C1)NC1=C(CN=N1)[C@]21COC2(CN(C(=O)c3ccccc3)C2)C1 [US20250313563, Compound 943956]
5.30 to 6.00	6.00 to 7.00	CC[C@@]1(c2cccc(-c3cnn(-c4ccncn4)c3)c2)C2=CN=NC2NC2=C1C(=O)NC(C)(C)C2 (some centres undefined) [US20250313563, Compound 952016]
< 5.30	5.30 to 6.00	CC[C@]1(c2cccc(-c3ccnc(CCO)c3)c2)C2=CN=NC2NC2=C1C(=O)CC(C)(C)C2 (some centres undefined) [US20250313563, Compound 947816]
6.00 to 7.00	6.00 to 7.00	CCc1cc(-c2cccc([C@]3(CC)C4=CN=NC4NC4=C3C(=O)NC(C)(C)C4)c2)n(C)n1 (some centres undefined) [US20250313563, Compound 952561]
6.00 to 7.00	6.00 to 7.00	CC[C@@]1(c2cccc(S(=O)(=O)CC3CC3)c2)C2=C(CC(C)(C)NC2=O)NC2N=NC(C(F)(F)F)=C21 (some centres undefined) [US20250313563, Compound 949186]
< 5.30	< 5.30	CC[C@]1(c2cccc(-c3c(C)cncc3C)c2)C2=CN=NC2NC2=C1C(=O)NC(C)(C)C2 (some centres undefined) [US20250313563, Compound 948829]
5.30 to 6.00	6.00 to 7.00	CC[C@]1(c2ccccc2)C2=CN=NC2NC2=C1C(=O)[C@@H](F)C(C)(C)C2 (some centres undefined) [US20250313563, Compound 957405]

From BindingDB's records for patent US20250313563 (The Broad Institute, 2025)
